The nature of test [1]: Murine PLP T cell proliferation assay (PLP assay). Format: cell-based. Particulars: Mus musculus, off-target (mTOR-driven) immunosuppressive potency.
Description: Activity of mTOR inhibitors was measured in two different antigen-specific murine T cell proliferation assays (as described in Young et al., 2000). […] In a second type of assay, lymph nodes obtained from PLP TCR transgenic mice are simulated with PLP peptide in culture in a primary stimulation assay.
Another test concerns the target FKBP12 (Homo sapiens, UniProt P62942). The test can be described thus: FKBP12 PPIase assay (inhibition of peptidyl-prolyl isomerase activity). Particulars: 6 concentrations in duplicate, data fitted to a Ki curve. The format is biochemical.

Sequence of FKBP12 (P62942 whole entry, species assumed): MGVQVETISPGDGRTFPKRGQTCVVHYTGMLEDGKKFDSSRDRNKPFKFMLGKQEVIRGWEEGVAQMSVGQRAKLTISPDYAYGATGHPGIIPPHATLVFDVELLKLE
Description for FKBP12: The first order rate equation was fitted to the absorbance data to obtain a rate constant. A catalytic rate (Kenz) was calculated from the enzymatic rate minus the background rate. Kenz v inhibitor concentration was plotted to obtain the Ki value. […] All compounds were assayed at 6 concentrations in duplicate and the data fitted to a Ki curve to afford a Ki value with standard error (SE).

For the molecule `CO[C@H]1C[C@@H]2CC[C@@H](C)[C@@](O)(O2)C(=O)C(=O)N2CCCC[C@H]2C(=O)OC([C@H](C)C[C@H]2CC[C@H](O)CC2)C[C@@H](O)CC(=O)[C@H](C)CC[C@H](C)/C=C/C=C/C=C/1C` (stereo partly drawn) [Compound 4], the IC50 (usually the concentration needed to halve the response being measured) in test [1] was 4.46 µM.
For `CO[C@H]1C[C@@H]2CC[C@@H](C)[C@](O)(CC(=O)N3CCCC[C@H]3C(=O)OC([C@H](C)C[C@@H]3CC[C@@H](O)[C@H](O)C3)C/C=C(\C)[C@@H](O)CC(=O)[C@H](C)CC[C@H](C)/C=C/C=C/C=C/1C)O2` (stereo partly drawn) [Compound 9], the Ki (usually a measure of affinity in units of concentration, obtained from inhibition or displacement) on FKBP12 turned out to be 0.18 µM.
On the same count and under the same terms, the figure for `CO[C@H]1C[C@@H]2CC[C@@H](C)[C@@](O)(O2)C(=O)C(=O)N2CCCC[C@H]2C(=O)O[C@H](/C(C)=C/C[C@H](O)[C@H](C)C[C@H]2CC[C@H](O)CC2)CC(=O)[C@H](C)C[C@H](C)/C=C/C=C/C=C/1C` [Compound 21] is 0.095 µM.

The values are drawn from US9976165B2, “Methods for increasing molecular diversity of polyketides and non-ribosomal proteins” (Isomerase Therapeutics Limited, priority 2013, dated 2018).
